Source: patent publication US11332470B2, “CXCR4 inhibitors and uses thereof” (X4 Pharmaceuticals, Inc., priority 2016, dated 2022)

Key:
[1] = biological target: T1, CXCR4 (Jurkat cells expressing CXCR4) (Homo sapiens, UniProt P61073); test: Chemokine (CXCL12-AF647) binding inhibition assay; conditions: CXCL12-AF647 25 ng/mL, read-out: IC50 CXCL-12 binding Jurkat
T1 construct: Jurkat cells expressing CXCR4; endogenous in cells; host or cells: Jurkat
In short: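 Cells in HBSS, 20 mM HEPES, 0.2% BSA, pH 7.4, preincubated 15 min at room temperature with compound, then 25 ng/mL CXCL12-AF647 for 30 min. After washing and paraformaldehyde fixation, bound ligand read by flow cytometry; percent inhibition calculated from MFI relative to unlabeled and ligand-only controls.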

[2] = Fraction of drug unbound to plasma proteins; type: in vitro ADME, Mouse; conditions: read-out: Fu (p) % (fraction of drug unbound to plasma proteins)
[3] = Fraction of drug unbound to brain proteins; type: in vitro ADME, Mouse; conditions: read-out: Fu (b) % (fraction of drug unbound to brain proteins)

T1 sequence (P61073 whole entry): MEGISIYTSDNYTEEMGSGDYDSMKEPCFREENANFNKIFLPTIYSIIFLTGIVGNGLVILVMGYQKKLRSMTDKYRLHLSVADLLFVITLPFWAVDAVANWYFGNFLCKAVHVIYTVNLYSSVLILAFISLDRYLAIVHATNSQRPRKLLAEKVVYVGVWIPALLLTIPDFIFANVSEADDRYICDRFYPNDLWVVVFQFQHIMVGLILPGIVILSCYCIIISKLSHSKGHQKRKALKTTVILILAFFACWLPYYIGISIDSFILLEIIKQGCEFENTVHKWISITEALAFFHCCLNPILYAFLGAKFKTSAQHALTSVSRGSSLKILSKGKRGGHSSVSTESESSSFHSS

Row | IC50 [1] [nM] | fraction unbound ([2]; Table 10, mouse) | fraction unbound ([3]; Table 10, mouse) | fraction unbound ([2]; Table 9, mouse) | fraction unbound ([3]; Table 9, mouse) | SMILES
1 | 0.01 to 100 | 0.05 | 0.008 | – | – | Cc1cccnc1C1CCCN1Cc1nc2cccc(N3CCN(C4CC4)CC3)c2[nH]1 (stereo not drawn) [Compound I-31]
2 | 0.01 to 100 | – | – | 0.127 | 0.076 | CN1CCN(c2cccc3[nH]c(CN4CCCC4c4ncccc4Cl)nc23)CC1 (stereo not drawn) [Compound I-26]

More lines, now with the values behind:

Row | SMILES | IC50 [1] [nM] | fraction unbound ([2]; Table 10, mouse) | fraction unbound ([3]; Table 10, mouse) | fraction unbound ([2]; Table 9, mouse) | fraction unbound ([3]; Table 9, mouse)
3 | CN1CCN(c2c(CN3CCCC3c3ccccn3)nc3ccc(F)cn23)CC1 (stereo not drawn) [Compound I-63] | 0.01 to 100 | – | – | 0.133 | 0.053
4 | CN1CCN(c2c(CN3CCCC3c3ccccn3)nc3ccccn23)CC1 (stereo not drawn) [Compound I-41] | 0.01 to 100 | – | – | 0.239 | 0.069
5 | CN1CCN(c2c(CN3CCCC3c3nccs3)nc3ccccn23)CC1 (stereo not drawn) [Compound I-70] | 0.01 to 100 | – | – | 0.148 | 0.207
6 | Cc1cccnc1C1CCCN1Cc1cn2c(N3CCN(C)C4(CC4)C3)cccc2n1 (stereo not drawn) [Compound I-29] | 100 to 1000 | 0.455 | 0.063 | – | –
